Assay results taken from ChEMBL document CHEMBL1201862, “PubChem BioAssay data set” (2004).
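Each compound was tested at five concentrations against cells in 96-well plates for 48 hours. The concentration for 50% growth inhibition is given as GI50.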 Active and inactive are the calls of the source. Cut-off read from the data, not from the text of the source: active = GI50 up to about 1.1 µM and inactive = higher.

Experiments:
Test in all cases: growth of human tumour cells (NCI), 48 h
HCT-116 = system: HCT-116
PC-3 = system: PC-3
SNB-19 = system: SNB-19
NCI-H522 = system: NCI-H522
UACC-257 = system: UACC-257
Hs-578T = system: Hs-578T
SW-620 = system: SW-620
NCI/ADR-RES = system: NCI/ADR-RES
CCRF-CEM = system: CCRF-CEM
NCI-H23 = system: NCI-H23
NCI-H460 = system: NCI-H460
OVCAR-3 = system: OVCAR-3
SK-MEL-28 = system: SK-MEL-28
A549 = system: A549
SK-OV-3 = system: SK-OV-3
HCT-15 = system: HCT-15
NCI-H226 = system: NCI-H226
SNB-75 = system: SNB-75
SN12C = system: SN12C

Structure (SMILES): COC1OC(Cn2cc([N+](=O)[O-])nc2C)C(O)C(O)C1O (centres undefined)
- GI50 (HCT-116): > 100 µM (inactive)
- GI50 (PC-3): > 100 µM (inactive)
- GI50 (SNB-19): > 100 µM (inactive)
- GI50 (NCI-H522): > 100 µM (inactive)
- GI50 (UACC-257): > 100 µM (inactive)
- GI50 (Hs-578T): > 100 µM (inactive)
- GI50 (SW-620): > 100 µM (inactive)
- GI50 (NCI/ADR-RES): > 100 µM (inactive)
- GI50 (CCRF-CEM): > 100 µM (inactive)
- GI50 (NCI-H23): > 100 µM (inactive)
- GI50 (NCI-H460): > 100 µM (inactive)
- GI50 (OVCAR-3): > 100 µM (inactive)
- GI50 (SK-MEL-28): > 100 µM (inactive)
- GI50 (A549): > 100 µM (inactive)
- GI50 (SK-OV-3): > 100 µM (inactive)
- GI50 (HCT-15): > 100 µM

Structure (SMILES): CCN(CC)C(=S)N/N=C(\C)c1ccccc1O
- GI50 (SNB-19): 20.8 µM (inactive)
- GI50 (NCI-H226): 20.7 µM (inactive)
- GI50 (NCI-H522): 8.57 µM (inactive)
- GI50 (UACC-257): 27 µM (inactive)
- GI50 (SW-620): 22.9 µM (inactive)
- GI50 (CCRF-CEM): 5 µM (inactive)
- GI50 (SNB-75): 44.2 µM (inactive)
- GI50 (NCI-H23): 25 µM (inactive)
- GI50 (NCI-H460): 4.84 µM (inactive)
- GI50 (OVCAR-3): 34.3 µM (inactive)
- GI50 (SK-MEL-28): 23.4 µM (inactive)
- GI50 (SN12C): 20.9 µM (inactive)
- GI50 (A549): 11.4 µM (inactive)
- GI50 (SK-OV-3): 33.7 µM (inactive)
- GI50 (HCT-15): 3.72 µM

Structure (SMILES): COC(=O)C(=O)C(C#N)c1ccc(Cl)c(Cl)c1 (centres undefined)
- GI50 (HCT-116): > 100 µM (inactive)
- GI50 (NCI-H226): > 100 µM (inactive)
- GI50 (NCI-H522): > 100 µM (inactive)
- GI50 (UACC-257): > 100 µM (inactive)
- GI50 (SW-620): > 100 µM (inactive)
- GI50 (CCRF-CEM): > 100 µM (inactive)
- GI50 (SNB-75): 80 µM (inactive)
- GI50 (NCI-H23): > 100 µM (inactive)
- GI50 (OVCAR-3): > 100 µM (inactive)
- GI50 (SK-MEL-28): > 100 µM (inactive)
- GI50 (SN12C): > 100 µM (inactive)
- GI50 (A549): > 100 µM (inactive)
- GI50 (SK-OV-3): > 100 µM (inactive)
- GI50 (HCT-15): > 100 µM

Structure (SMILES): NC(=O)c1ncn(C2OC(CO)C(O)C2O)c1O (centres undefined)
- GI50 (HCT-116): 72.6 µM (inactive)
- GI50 (SNB-19): > 100 µM (inactive)
- GI50 (NCI-H226): 54.6 µM (inactive)
- GI50 (SW-620): 44.4 µM (inactive)
- GI50 (CCRF-CEM): > 100 µM (inactive)
- GI50 (SNB-75): > 100 µM (inactive)
- GI50 (NCI-H460): 53.7 µM (inactive)
- GI50 (OVCAR-3): 96.8 µM (inactive)
- GI50 (SK-MEL-28): > 100 µM (inactive)
- GI50 (SN12C): > 100 µM (inactive)
- GI50 (A549): > 100 µM (inactive)
- GI50 (HCT-15): 65.2 µM

Structure (SMILES): CC(=O)NNc1nc(C)c(C(=O)/C=C/c2ccccc2Cl)s1
- GI50 (SNB-19): > 100 µM (inactive)
- GI50 (NCI-H226): > 100 µM (inactive)
- GI50 (NCI-H522): 43.5 µM (inactive)
- GI50 (UACC-257): > 100 µM (inactive)
- GI50 (SW-620): > 100 µM (inactive)
- GI50 (CCRF-CEM): > 100 µM (inactive)
- GI50 (SNB-75): > 100 µM (inactive)
- GI50 (NCI-H23): > 100 µM (inactive)
- GI50 (NCI-H460): > 100 µM (inactive)
- GI50 (OVCAR-3): > 100 µM (inactive)
- GI50 (SK-MEL-28): > 100 µM (inactive)
- GI50 (SN12C): > 100 µM (inactive)
- GI50 (A549): > 100 µM (inactive)
- GI50 (SK-OV-3): > 100 µM (inactive)
- GI50 (HCT-15): > 100 µM

Structure (SMILES): Nc1ccc(C(=O)N/C(=C\C=C\c2ccco2)c2nc3c4c(ccc3[nH]2)C(=O)c2ccccc2C4=O)cc1
- GI50 (HCT-116): 24.8 µM (inactive)
- GI50 (SNB-19): 39.7 µM (inactive)
- GI50 (NCI-H522): 15.8 µM (inactive)
- GI50 (UACC-257): > 100 µM (inactive)
- GI50 (SW-620): 33 µM (inactive)
- GI50 (CCRF-CEM): 1.09 µM (active)
- GI50 (SNB-75): 14.2 µM (inactive)
- GI50 (NCI-H23): 41.5 µM (inactive)
- GI50 (OVCAR-3): 32.9 µM (inactive)
- GI50 (SK-MEL-28): 36.6 µM (inactive)
- GI50 (SN12C): 29.4 µM (inactive)
- GI50 (A549): 21 µM (inactive)
- GI50 (SK-OV-3): 21.7 µM (inactive)
- GI50 (HCT-15): 31.9 µM

Structure (SMILES): CC(C)c1cccc(C(C)C)c1NC(=O)C(=O)Cc1nc2ccc([N+](=O)[O-])cc2nc1O
- GI50 (HCT-116): 39.2 µM (inactive)
- GI50 (SNB-19): > 100 µM (inactive)
- GI50 (NCI-H226): > 100 µM (inactive)
- GI50 (NCI-H522): 6.35 µM (inactive)
- GI50 (UACC-257): 69.2 µM (inactive)
- GI50 (SW-620): 71.6 µM (inactive)
- GI50 (CCRF-CEM): 18.6 µM (inactive)
- GI50 (SNB-75): > 100 µM (inactive)
- GI50 (NCI-H23): 31.9 µM (inactive)
- GI50 (NCI-H460): 70.1 µM (inactive)
- GI50 (OVCAR-3): > 100 µM (inactive)
- GI50 (SK-MEL-28): 86.1 µM (inactive)
- GI50 (A549): 53.6 µM (inactive)
- GI50 (SK-OV-3): > 100 µM (inactive)
- GI50 (HCT-15): 9.31 µM

Structure (SMILES): COc1ccc(Nc2c[nH]c(=O)[nH]c2=O)cc1
- GI50 (HCT-116): > 100 µM (inactive)
- GI50 (PC-3): > 100 µM (inactive)
- GI50 (SNB-19): > 100 µM (inactive)
- GI50 (NCI-H226): > 100 µM (inactive)
- GI50 (NCI-H522): > 100 µM (inactive)
- GI50 (UACC-257): > 100 µM (inactive)
- GI50 (SW-620): > 100 µM (inactive)
- GI50 (NCI/ADR-RES): > 100 µM (inactive)
- GI50 (CCRF-CEM): > 100 µM (inactive)
- GI50 (SNB-75): > 100 µM (inactive)
- GI50 (NCI-H23): > 100 µM (inactive)
- GI50 (OVCAR-3): > 100 µM (inactive)
- GI50 (SK-MEL-28): > 100 µM (inactive)
- GI50 (SN12C): > 100 µM (inactive)
- GI50 (A549): > 100 µM (inactive)
- GI50 (SK-OV-3): > 100 µM (inactive)
- GI50 (HCT-15): > 100 µM

Structure (SMILES): NC(CCCCN/C=C1/N=C(c2ccccc2)OC1=O)C(=O)O (centres undefined)
- GI50 (HCT-116): > 100 µM (inactive)
- GI50 (SNB-19): > 100 µM (inactive)
- GI50 (NCI-H226): > 100 µM (inactive)
- GI50 (NCI-H522): 26.1 µM (inactive)
- GI50 (UACC-257): > 100 µM (inactive)
- GI50 (SW-620): > 100 µM (inactive)
- GI50 (CCRF-CEM): 52 µM (inactive)
- GI50 (SNB-75): > 100 µM (inactive)
- GI50 (NCI-H23): > 100 µM (inactive)
- GI50 (NCI-H460): > 100 µM (inactive)
- GI50 (OVCAR-3): > 100 µM (inactive)
- GI50 (SK-MEL-28): > 100 µM (inactive)
- GI50 (SN12C): > 100 µM (inactive)
- GI50 (A549): > 100 µM (inactive)
- GI50 (SK-OV-3): > 100 µM (inactive)
- GI50 (HCT-15): > 100 µM
